Data reported in patent US8466311B2, “Neuroprotective compositions and methods” (Sanford-Burnham Medical Research Institute, priority 2006, dated 2013).

Experiments:
[1] = test system: HO-1 promoter; experiment: HO-1 promoter luciferase reporter (pHO15luc) in HT22 cells; type: cell-based, mouse
Experimental: Cell cultures, transfection, and glutathione (GSH) measurement. […] Transfection was performed with Lipofectamine 2000 (Invitrogen). In the reporter gene assays, firefly luciferase activity in cell lysates was measured with a luminometer (Promega). Total GSH (reduced and oxidized) was determined as described (Lee et al., Biochem. Biophys. Res. Commun. 280:286-292, 2001).
NEPPs activate HO-1 transcription through the ARE. We next studied activation of the HO-1 promoter and ARE by NEPP. In order to examine the induction of HO-1 protein by NEPP11, various concentrations of NEPP11 were added to HT22 cells for 24 h. Thereafter, cell lysates (10 μg per lane) were subjected to SDS-PAGE and probed with anti-HO-1 or anti-β-actin. […] Next, we studied transcriptional activation of the HO-1 gene by NEPP11 in HT22 cells, a differentiated neuronal cell line, transfected with pHO15luc, a luciferase reporter construct under the control of a 15-kb mouse HO-1 promoter fragment. HT22 cells were transfected with reporter cDNAs (1 μg per well), and various concentrations of NEPP11 were added to the cultures. After a 24-h incubation, cell lysates were subjected to luciferase reporter assays. […] Gong et al. (Antioxid. Redox Signal. 4:249-257, 2002) had identified two enhancer regions, E1 and E2, located upstream of the transcriptin initiation site by approximately 4 and 10 kb that contained the elements responsible for activation by 15-deoxy-Δ^12,14-PGJ2 (Gong et al., Antioxid. Redox Signal. 4:249-257, 2002). To determine the role of the E1 and E2 enhancers, we expressed a mutant promoter construct lacking both enhancer sites [pHO15lucΔ(E1+E2)]. The mutant was only minimally responsive to NEPP11 (1.8-fold induction).
Because the E1 and E2 regions also contain other enhancer elements, we tested the effects of NEPP11 (2 μM) on the expression of luciferase activity derived from these elements, including the cAMP-responsive element (CRE; p3xCREluc), AP-1 binding site (p3xAP1luc), NF-κB binding site (p3xNF-κBluc), NFAT-binding site (p3xNFATluc), ETS-binding site (p3xETSluc), and MEF2-binding site (p3xMEF2luc).

[2] = test system: ARE probe; experiment: EMSA with biotin-labeled ARE probe, HT22 nuclear lysates; type: cell-based; details: HT22 cells, NEPP11 1 μM, 8 h
Experimental: Electrophoretic mobility shift assays (EMSAs). Double-stranded antioxidant-responsive elements (AREs) were labeled by using a biotin 3′-end DNA labeling kit (Pierce). Nuclear lysates were incubated with the labeled probe for 20 min at room temperature, resolved on an 8% native polyacrylamide gel, and transferred to Hybond-N^+ (Amersham Pharmacia). Signals were visualized with peroxidase-conjugated streptavidin (Pierce).
To confirm that NEPP11 leads to an increase in transcription factors, including Nrf2, that bind to the ARE, we performed EMSAs. HT22 cells were incubated for 8 h with vehicle or NEPP11 (1 μM). EMSAs were performed by using 10 μg of nuclear lysates per lane and a biotin-labeled ARE probe. In one lane, anti-Nrf2 antibody (100×) was added to supershift Nrf2 protein binding to ARE probe. In another lane, an excess amount of non-labeled probe was added to the sample to compete out the labeled ARE probe from binding to proteins in the nuclear lysates. […] The band representing the labeled ARE probe was shifted in the presence of control lysates, indicating binding of endogenous transcription factors to the ARE. […] In contrast, the band was totally abrogated in the presence of excess unlabeled probe. […]

[3] = test system: phase 2 genes (GCL-L, GCL-H, HO-1, NQO1); experiment: Phase 2 gene induction in PC12h cells (RT-PCR); type: cell-based; details: 10 μM CA, 6-24 h
Experimental: RT-PCR. In order to examine phase 2 gene induction by CA in PC12h cells and brain lysates, RT-PCR of total RNA from cortical cultures was performed using the following primer pairs (Hosoya et al., J. Bioi. Chern. 29:27244-27250, 2005; Kobayashi et al., Mol. Cell. Biol. 26:221-229, 2006): CypA (89 bp), 5′-ACAGGTCCTGGCATCTTGTC-3′ (SEQ ID NO: 18)(sense) and 5′-[…] -3′ (SEQ ID NO: 19)(antisense); H0-1 (284 bp), 5′-CAGTCGCCTCCAGAGTTTCC -3′ (SEQ ID NO: 20)(sense) and 5′- TACAAGGAGGCCATCACCAGC-3′ (SEQ ID NO: 21)(antisense); GCL-M (280 bp), 5′- CTGCTAAACTGTTCATTGTAGG-3′ (SEQ ID NO: 22)(sense) and 5′- CTA TTG GGT TIT ACC TGT G-3′ (SEQ ID NO: 23)(antisense); GCL-C (213 bp), 5′- GTC TIC AGG TGA ACA TIC CAA GC-3′ (SEQ ID NO: 24)(sense) and 5′- TGTTCTTCAGGGGCTCCAGTC-3′ (SEQ 10 NO: 25)(antisense); and NQO1 (212 bp), 5′- GTG TAC AGC ATI GGC CAC AC-3′ (SEQ 10 NO: 26)(sense) and 5′AAATGATGGCCCACAGAAAG-3′ (SEQ ID NO: 27)(antisense).
Phase 2 enzymes represent an important effector activated by electrophilic-induction of the Keap1/Nrf2 pathway. In order to detect induction of the phase 2 enzymes γ-GCL light chain (GCL-L), γ-GCL heavy chain (GCL-H), HO-1, and NQO1, we performed RT-PCR using mRNA of PC12h cells pretreated with 10 μM CA. The cyclophilin A (CYPA) gene was used as an internal positive control.

[4] = target: T1, bovine serum albumin (BSA) (Bos taurus, UniProt P02769); experiment: Adduct formation with free cysteine of BSA (streptavidin blot); type: binding; details: NEM pretreatment
T1 construct: purchased WAKO Chemicals Inc. (Tokyo, Japan) or Sigma (St. Louis, Mo.)
T1 sequence (P02769 25-607): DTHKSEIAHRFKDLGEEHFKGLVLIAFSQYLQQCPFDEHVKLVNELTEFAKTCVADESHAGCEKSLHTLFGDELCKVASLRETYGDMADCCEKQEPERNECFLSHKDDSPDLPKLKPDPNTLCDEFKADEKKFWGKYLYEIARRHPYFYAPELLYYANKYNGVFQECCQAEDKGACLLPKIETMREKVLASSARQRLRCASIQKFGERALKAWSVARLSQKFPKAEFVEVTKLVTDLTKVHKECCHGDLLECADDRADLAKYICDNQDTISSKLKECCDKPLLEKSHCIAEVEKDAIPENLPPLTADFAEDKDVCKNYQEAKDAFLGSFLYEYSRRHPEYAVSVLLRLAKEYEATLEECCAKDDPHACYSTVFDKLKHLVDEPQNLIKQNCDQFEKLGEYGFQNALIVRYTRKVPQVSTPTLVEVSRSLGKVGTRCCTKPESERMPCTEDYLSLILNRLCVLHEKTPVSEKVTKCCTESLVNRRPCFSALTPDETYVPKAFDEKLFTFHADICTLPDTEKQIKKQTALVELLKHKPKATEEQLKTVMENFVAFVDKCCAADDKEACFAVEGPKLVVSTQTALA
Experimental: We tested whether the free cysteine of bovine serum albumin (BSA) could form an adduct with NEPP compounds. If carbon #11 on the NEPP compounds binds to this free cysteine of BSA, then pretreatment with N-ethylmaleimide (NEM), in irreversible thiol alkylating agent, would abolish this binding. […] With streptavidin as a probe, we could then detect proteins bound to NEPP6-biotin. In order to study thiols as targets of NEPP binding, BSA (1 μg per lane) was incubated with various concentrations (0-1000 μM) of N-ethylmaleimide (NEM) for 30 minutes at room temperature. Vehicle or NEPP6-biotin (10 μM) in phosphate-buffered saline (PBS) was added and the mixture was incubated at room temperature for 5 h, subjected to sodium dodecyl sulfate polyacrylamide gel electrophoresis (SDS-PAGE), and probed with peroxidase-conjugated streptavidin. The gel was also stained with Coomassie brilliant blue.

COC(=O)CCCCC/C=C1/C(=O)C=C[C@H]1CCCCCCc1ccc(C)cc1 [NEPP11]
expression of HO-1 transcription (pHO15luc luciferase activity) ([1]; HT22 cells, 24 h, dose-dependent): more than five-fold
induction of mutant promoter pHO15lucΔ(E1+E2) ([1]; HT22 cells, construct lacking E1 and E2 enhancers): 1.8 fold
induction of pHO15luc reporter activity ([1]; NEPP11 2 μM, used for comparison): greater than five-fold
activation of pHO15luc with co-transfection of pKeap1(C151S) ([1]; not depressed by wild-type pKeap1): significantly depressed
shifted ARE probe band intensity [2]: significant increase in the intensity of this band

CC(C)c1cc2c(c(O)c1O)[C@@]1(C(=O)O)CCCC(C)(C)[C@@H]1CC2 [CA, carnosic acid]
induction of phase 2 genes [3]: All of the phase 2 genes were induced
BSA adduct signal after pretreatment with NEM [4]: depressed the streptavidin signal in a dose-dependent manner
